Source: ChEMBL document CHEMBL3108695, “Inhibitors of factor d may provide a treatment for age-related macular degeneration” (ACS Med Chem Lett, 2014)

Biological target: Complement factor D (Homo sapiens, UniProt P00746)
Assay: Inhibition of recombinant human factor D expressed in Escherichia coli using Z-Lys-thiobenzyl and 2,4-dinitrobenzenesulfonyl-fluoresceine as substrate preincubated for 1 hr followed by substrate addition by spectrofluorimetric analysis

Complement factor D, sequence (P00746 whole entry): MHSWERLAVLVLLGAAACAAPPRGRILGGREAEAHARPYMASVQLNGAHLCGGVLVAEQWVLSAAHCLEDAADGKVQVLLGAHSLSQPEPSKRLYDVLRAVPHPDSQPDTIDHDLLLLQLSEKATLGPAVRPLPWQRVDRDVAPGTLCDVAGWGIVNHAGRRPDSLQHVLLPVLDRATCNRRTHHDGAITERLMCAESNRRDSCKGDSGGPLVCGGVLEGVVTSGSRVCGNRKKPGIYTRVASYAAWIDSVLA

How did the IC50 turn out when `NC(=O)c1nn(CC(=O)N2[C@@H]3C[C@@H]3C[C@H]2C(=O)Nc2cccc(Br)n2)c2cnc(CF)cc12` was run?
The IC50 was 2 nM.
